Results from patent publication US20220220373A1, “FLUORESCENT PROBES FOR MONOACYLGLYCEROL LIPASE (MAGL)” (Hoffmann-La Roche Inc., priority 2019, published 2022).

Target: T1, MAGL (Homo sapiens, UniProt Q99685)
T1 sequence (Q99685 1-303): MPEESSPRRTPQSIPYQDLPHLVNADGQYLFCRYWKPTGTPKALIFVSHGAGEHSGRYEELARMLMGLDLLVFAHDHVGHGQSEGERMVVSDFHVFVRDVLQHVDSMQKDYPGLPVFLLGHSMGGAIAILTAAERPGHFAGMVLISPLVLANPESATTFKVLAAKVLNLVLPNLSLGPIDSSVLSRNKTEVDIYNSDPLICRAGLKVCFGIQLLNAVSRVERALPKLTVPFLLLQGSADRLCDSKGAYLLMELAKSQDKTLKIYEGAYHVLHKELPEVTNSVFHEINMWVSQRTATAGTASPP
Experiment: 2-AG assay (MAGL inhibitory activity, hydrolysis of 2-arachidonoylglycerol followed by mass spectrometry)
Format: biochemical
Conditions: 50 pM MAGL, 8 μM 2-arachidonoylglycerol, 15 min pre-incubation, 30 min incubation at RT
Experimental: Compounds were profiled for MAGL inhibitory activity by determining the enzymatic activity by following the hydrolysis of the natural substrate 2-arachidonoylglycerol (2-AG) resulting in arachidonic acid, which can be followed by mass spectrometry. This assay is hereinafter abbreviated “2-AG assay”.
The 2-AG assay was carried out in 384 well assay plates (PP, Greiner Cat#784201) in a total volume of 20 μL. Compound dilutions were made in 100% DMSO (VWR Chemicals 23500.297) in a polypropylene plate in 3-fold dilution steps to give a final concentration range in the assay from 12.5 μM to 0.8 pM. […] compound dilutions (100% DMSO) were added to 9 μL MAGL in assay buffer (50 mM TRIS (GIBCO, 15567-027), 1 mM EDTA (Fluka, 03690-100 mL), 0.01% (v/v) Tween. After shaking, the plate was incubated for 15 min at RT. To start the reaction, 10 μL 2-arachidonoylglycerol in assay buffer was added. The final concentrations in the assay was 50 pM MAGL and 8 μM 2-arachidonoylglyerol. After shaking and 30 min incubation at RT, the reaction was quenched by the addition of […] of ACN containing 4 μM of d8-arachidonic acid. The amount of arachidonic acid was traced by an online SPE system (Agilent Rapidfire) coupled to a triple quadrupole mass spectrometer (Agilent 6460). A C18 SPE cartridge (G9205A) was used in an ACN/water liquid setup. The mass spectrometer was operated in negative electrospray mode following the mass transitions 303.1→259.1 for arachidonic acid and 311.1→267.0 for d8-arachidonic acid. The activity of the compounds was calculated based on the ratio of intensities [arachidonic acid/d8-arachidonic acid].

**Q.** Which IC50 does the source give for `CC(C)(C)OC(=O)NCCOc1cccc(C(c2ccccc2)C2CCN(C(=O)N3CC[C@@H]4OCC(=O)N[C@@H]4C3)CC2)c1` (single isomer, unassigned) [Example 4, tert-Butyl N-[2-[3-[(R or S)-[1-[(4aR,8aS)-3-oxo-4,4a,5,7,8,8a-hexahydropyrido[4,3-b][1,4]oxazine-6-carbonyl]-4-piperidyl]-phenyl-methyl]phenoxy]ethyl]carbamate] here?
**A.** 0.3 nM

**Q.** With `CC(C)(C)OC(=O)NCCOc1cccc(C(c2ccccc2)C2CCN(C(=O)N3CC[C@@H]4OCC(=O)N[C@@H]4C3)CC2)c1` (single isomer, unassigned) [Example 5, tert-Butyl N-[2-[3-[(S or R)-[1-[(4aR,8aS)-3-oxo-4,4a,5,7,8,8a-hexahydropyrido[4,3-b][1,4]oxazine-6-carbonyl]-4-piperidyl]-phenyl-methyl]phenoxy]ethyl]carbamate] as the compound, how does the IC50 read?
**A.** 0.2 nM

**Q.** For `NCCOc1cccc(C(c2ccccc2)C2CCN(C(=O)N3CC[C@@H]4OCC(=O)N[C@@H]4C3)CC2)c1` (single isomer, unassigned) [Example 6, (4aR,8aS)-6-[4-[(S or R)-[3-(2-Aminoethoxy)phenyl]-phenyl-methyl]piperidine-1-carbonyl]-4,4a,5,7,8,8a-hexahydropyrido[4,3-b][1,4]oxazin-3-one], which IC50 is on record?
**A.** 5.3 nM

**Q.** `NCCOc1cccc(C(c2ccccc2)C2CCN(C(=O)N3CC[C@@H]4OCC(=O)N[C@@H]4C3)CC2)c1` (single isomer, unassigned) [Example 7, (4aR,8aS)-6-[4-[(R or S)-[3-(2-Aminoethoxy)phenyl]-phenyl-methyl]piperidine-1-carbonyl]-4,4a,5,7,8,8a-hexahydropyrido[4,3-b][1,4]oxazin-3-one] was tested. Which IC50 did it give?
**A.** 48.5 nM

**Q.** For `CC(C)(C)OC(=O)NCCOCCOCCC(=O)NCCOc1cccc([C@H](c2ccccc2)C2CCN(C(=O)N3CC[C@@H]4OCC(=O)N[C@@H]4C3)CC2)c1` (single isomer, unassigned) [Example 8, tert-Butyl N-[2-[2-[3-[2-[3-[(S or R)-11-1(4aR,8aS)-3-oxo-4,4a,5,7,8,8a-hexahydropyrido[4,3-b][1,4]oxazine-6-carbonyl]-4-piperidyl]-phenyl-methyl]phenoxy]ethylamino]-3-oxo-propoxy]ethoxy]ethyl]carbamate], which IC50 is on record?
**A.** 1.5 nM

**Q.** For `CC(C)(C)OC(=O)NCCOCCOCCC(=O)NCCOc1cccc(C(c2ccccc2)C2CCN(C(=O)N3CC[C@@H]4OCC(=O)N[C@@H]4C3)CC2)c1` (single isomer, unassigned) [Example 9, tert-Butyl N-[2-[2-[3-[2-[3-[(R or S)-[1-[(4aR,8aS)-3-oxo-4,4a,5,7,8,8a-hexahydropyrido[4,3-b][1,4]oxazine-6-carbonyl]-4-piperidyl]-phenyl-methyl]phenoxy]ethylamino]-3-oxo-propoxy]ethoxy]ethyl]carbamate], which IC50 is on record?
**A.** 2.6 nM

**Q.** `NCCOCCOCCC(=O)NCCOc1cccc(C(c2ccccc2)C2CCN(C(=O)N3CC[C@@H]4OCC(=O)N[C@@H]4C3)CC2)c1` (single isomer, unassigned) [Example 10, N-[2-[3-[(R or S)-[1-[(4aR,8aS)-3-Oxo-4,4a,5,7,8,8a-hexahydropyrido[4,3-b][1,4]oxazine-6-carbonyl]-4-piperidyl]-phenyl-methyl]phenoxy]ethyl]-3-[2-(2-aminoethoxy)ethoxy]propanamide] was tested. Which IC50 did it give?
**A.** 7.8 nM

**Q.** How did the IC50 turn out when `NCCOCCOCCC(=O)NCCOc1cccc(C(c2ccccc2)C2CCN(C(=O)N3CC[C@@H]4OCC(=O)N[C@@H]4C3)CC2)c1` (single isomer, unassigned) [Example 11, N-[2-[3-[(S or R)-[1-[(4aR,8aS)-3-Oxo-4,4a,5,7,8,8a-hexahydropyrido[4,3-b][1,4]oxazine-6-carbonyl]-4-piperidyl]-phenyl-methyl]phenoxy]ethyl]-3-[2-(2-aminoethoxy)ethoxy]propanamide] was run?
**A.** 2930 nM

**Q.** With `O=C(CCOCCOCCNc1ccc([N+](=O)[O-])c2nonc12)NCCOc1cccc(C(c2ccccc2)C2CCN(C(=O)N3CC[C@@H]4OCC(=O)N[C@@H]4C3)CC2)c1` (single isomer, unassigned) [Example 12, N-[2-[3-[(S or R)-[1-[(4aR,8aS)-3-Oxo-4,4a,5,7,8,8a-hexahydropyrido[4,3-b][1,4]oxazine-6-carbonyl]-4-piperidyl]-phenyl-methyl]phenoxy]ethyl]-3-[2-[2-[(4-nitro-2,1,3-benzoxadiazol-7-yl)amino]ethoxy]ethoxy]propanamide] as the compound, how does the IC50 read?
**A.** 0.5 nM

**Q.** `O=C(CCOCCOCCNc1ccc([N+](=O)[O-])c2nonc12)NCCOc1cccc(C(c2ccccc2)C2CCN(C(=O)N3CC[C@@H]4OCC(=O)N[C@@H]4C3)CC2)c1` (single isomer, unassigned) [Example 13, N-[2-[3-[(R or S)-[1-[(4aR,8aS)-3-Oxo-4,4a,5,7,8,8a-hexahydropyrido[4,3-b][1,4]oxazine-6-carbonyl]-4-piperidyl]phenyl-methyl]phenoxy]ethyl]-3-[2-[2-[(4-nitro-2,1,3-benzoxadiazol-7-yl)amino]ethoxy]ethoxy]propanamide] was tested. Which IC50 did it give?
**A.** 1.6 nM

**Q.** Which IC50 does the source give for `CC(C)(C)OC(=O)NCCOCCC(=O)NCCOc1cccc(C(c2ccccc2)C2CCN(C(=O)N3CC[C@@H]4OCC(=O)N[C@@H]4C3)CC2)c1` (single isomer, unassigned) [Example 14, tert-Butyl N-[2-[3-[2-[3-[(S or R)-[1-[(4aR,8aS)-3-oxo-4,4a,5,7,8,8a-hexahydropyrido[4,3-b][1,4]oxazine-6-carbonyl]-4-piperidyl]-phenyl-methyl]phenoxy]ethylamino]-3-oxo-propoxy]ethyl]carbamate] here?
**A.** 1.3 nM

**Q.** Which IC50 does the source give for `CC(C)(C)OC(=O)NCCOCCC(=O)NCCOc1cccc([C@@H](c2ccccc2)C2CCN(C(=O)N3CC[C@@H]4OCC(=O)N[C@@H]4C3)CC2)c1` (single isomer, unassigned) [Example 15, tert-Butyl N-[2-[3-[2-[3-[(R or S)-[1-1(4aR,8aS)-3-oxo-4,4a,5,7,8,8a-hexahydropyrido[4,3-b][1,4]oxazine-6-carbonyl]-4-piperidyl]-phenyl-methyl]phenoxy]ethylamino]-3-oxo-propoxy]ethyl]carbamate] here?
**A.** 3.2 nM

**Q.** Which IC50 does the source give for `NCCOCCC(=O)NCCOc1cccc([C@@H](c2ccccc2)C2CCN(C(=O)N3CC[C@@H]4OCC(=O)N[C@@H]4C3)CC2)c1` (single isomer, unassigned) [Example 16, N-[2-[3-[(R or S)-[1-1(4aR,8aS)-3-Oxo-4,4a,5,7,8,8a-hexahydropyrido[4,3-b][1,4]oxazine-6-carbonyl]-4-piperidyl]phenyl-methyl]phenoxy]ethyl]-3-(2-aminoethoxy)propanamide] here?
**A.** 18.1 nM

**Q.** `O=C(CCOCCNc1ccc([N+](=O)[O-])c2nonc12)NCCOc1cccc(C(c2ccccc2)C2CCN(C(=O)N3CCC4OCC(=O)NC4C3)CC2)c1` (single isomer, unassigned) [Example 17, N-[2-[3-[(S or R)-11-1(4aR,8aS)-3-Oxo-4,4a,5,7,8,8a-hexahydropyrido[4,3-b][1,4]oxazine-6-carbonyl]-4-piperidyl]-phenyl-methyl]phenoxy]ethyl]-3-[2-[(4-nitro-2,1,3-benzoxadiazol-7-yl)amino]ethoxy]propanamide] was tested. Which IC50 did it give?
**A.** 0.7 nM

**Q.** `O=C(CCOCCNc1ccc([N+](=O)[O-])c2nonc12)NCCOc1cccc(C(c2ccccc2)C2CCN(C(=O)N3CCC4OCC(=O)NC4C3)CC2)c1` (single isomer, unassigned) [Example 18, N-[2-[3-[(R or S)-[1-1(4aR,8aS)-3-Oxo-4,4a,5,7,8,8a-hexahydropyrido[4,3-b][1,4]oxazine-6-carbonyl]-4-piperidyl]-phenyl-methyl]phenoxy]ethyl]-3-12-[(4-nitro-2,1,3-benzoxadiazol-7-yl)amino]ethoxy]propanamide] was tested. Which IC50 did it give?
**A.** 7.2 nM

**Q.** How did the IC50 turn out when `CC(C)(C)OC(=O)NCCOCCOCCOCCC(=O)NCCOc1cccc(C(c2ccccc2)C2CCN(C(=O)N3CC[C@@H]4OCC(=O)N[C@@H]4C3)CC2)c1` (single isomer, unassigned) [Example 19, tert-Butyl N-[2-[2-[2-[3-[2-[3-[(S or R)-[1-[(4aR,8aS)-3-oxo-4,4a,5,7,8,8a-hexahydropyrido[4,3-b][1,4]oxazine-6-carbonyl]-4-piperidyl]-phenyl-methyl]phenoxy]ethylamino]-3-oxo-propoxy]ethoxy]ethoxy]ethyl]carbamate] was run?
**A.** 2 nM
